According to US7410974B2, “Halogenated Quinazolinyl nitrofurans as antibacterial agents” (Ulysses Pharmaceutical Products, Inc., priority 2003, dated 2008):
Values after ≈ are worked out from the molar mass of the structure shown. Where two headings read alike, the source gives them in different places.

Experiments:
S. aureus ATCC 29213 = assay: MIC broth microdilution (NCCLS); type: cell-based, Staphylococcus aureus; details: Staphylococcus aureus, ATCC29213; S. aureus ATCC 29213; read-out: MIC
Protocol: (§1) Minimal Inhibitory Concentration (MIC) Determination. Bacteria (primary strain panel, TABLE 1). Susceptibility tests were performed following the recommendations from the National Committee for Clinical Standards (NCCLS). The MICs were determined by a broth microdilution technique using a final volume of 100 μl of cation-adjusted Mueller Hinton Broth (MHBCA) and a bacterial inoculum of 10^5-10^6 Colony Forming Units (CFU)/ml. The inocula were verified and precisely determined by applying 10-μl drops of 10-fold dilutions onto Triptic Soy Agar plates. The CFU were counted after an incubation of 24 h at 35° C. Any experiment showing an inoculum that was more or less than 10^5-10^6 CFU/ml was rejected. Control antibiotics and test compounds were prepared at a concentration equivalent to 2-fold the highest desired final concentration. Compounds were then diluted directly in the 96-well microtiter plates by serial 2-fold dilutions using a multichannel pipette. Microtiter plates were incubated during 24 h at 35° C. and growth was recorded by using a microtiterplate reader at 650 nm as well as by visual observation. The MIC was defined as the lowest concentration of compound yielding no visible growth. […] Fastidious bacteria. The medium used for Listeria monocytogenes, Neisseria meningitidis, and Campylobacter jejuni was MHBCA containing 2% laked horse blood. The medium used for Haemophilus influenzae and Branhamella (Moraxella) catarrhalis was HTM as recommended by the NCCLS. Cultures of these fastidious bacteria were incubated at 35° C. in a 5% CO2 atmosphere. […] The medium used for Bacteroides fragilis was Wilkins Chalgren broth and growth was allowed under an anaerobic atmosphere at 35° C. for 48 hours.

S. aureus MRSA COL = assay: MIC broth microdilution (NCCLS); type: cell-based, Staphylococcus aureus; details: Staphylococcus aureus, MRSA
Protocol: as §1, with “hours. […]” for “hours.”

[1] = tested on: S. epidermidis ATCC 12228; assay: MIC broth microdilution (NCCLS); type: cell-based, Staphylococcus epidermidis; details: Staphylococcus epidermidis, ATCC12228; S. epidermidis ATCC 12228; read-out: MIC
Protocol: as §1

[2] = tested on: S. saprophyticus ATCC 15305; assay: MIC broth microdilution (NCCLS); type: cell-based, Staphylococcus saprophyticus; details: Staphylococcus saprophyticus, ATCC15305; S. saprophyticus ATCC 15305; read-out: MIC
Protocol: as §1

E. faecalis ATCC 29212 = assay: MIC broth microdilution (NCCLS); type: cell-based, Enterococcus faecalis; details: Enterococcus faecalis, ATCC29212; E. faecalis ATCC 29212; read-out: MIC
Protocol: as §1

E. faecium ATCC 35667 = assay: MIC broth microdilution (NCCLS); type: cell-based, Enterococcus faecium; details: Enterococcus faecium, ATCC35667, E. faecium ATCC 35667; read-out: MIC
Protocol: as §1

E. coli ATCC 25922 = assay: MIC broth microdilution (NCCLS); type: cell-based, Escherichia coli; details: Escherichia coli, ATCC25922, E. coli ATCC 25922 (Reference); read-out: MIC
Protocol: as §1

S. typhimurium ATCC14028 = assay: MIC broth microdilution (NCCLS); type: cell-based, Salmonella typhimurium; details: Salmonella enterica; S. typhimurium ATCC14028; read-out: MIC
Protocol: as §1

A. baumannii ATCC 19606 = assay: MIC broth microdilution (NCCLS); type: cell-based, Acinetobacter baumannii; details: Acinetobacter baumannii, ATCC19606, read-out: MIC
Protocol: as §1

[3] = tested on: Y. enterocolytica ATCC 23715; assay: MIC broth microdilution (NCCLS); type: cell-based, Yersinia enterocolytica; details: Yersinia, ATCC23715, read-out: MIC
Protocol: as §1

H. influenzae ATCC 49247 [4] = assay: MIC broth microdilution (NCCLS), fastidious bacteria; type: cell-based; details: Haemophilus influenzae, ATCC49247, HTM, 5% CO2
Protocol: as §1

H. influenzae ATCC 49766 [5] = assay: as above; type: cell-based; details: Haemophilus influenzae, ATCC49766, HTM, 5% CO2
Protocol: as §1

B. catarrhalis ATCC 8176 [6] = assay: as above; type: cell-based, Branhamella (Moraxella) catarrhalis; details: Moraxella catarrhalis, ATCC8176, HTM, 5% CO2
Protocol: as §1

E. faecium VanA = assay: MIC broth microdilution, antibiotic resistant strain panel; type: cell-based; details: Enterococcus faecium; multi-resistant E. faecium VanA; read-out: MIC
Protocol: as §1
(§2) Finally, compounds were also tested against populations of various clinical strains (antibiotic resistant strain panel, TABLE 1).

H. influenzae ATCC 49247 [7] = assay: Minimal Bactericidal Concentration (MBC); type: cell-based; details: Haemophilus influenzae, ATCC49247, 99.9% killing
Protocol: (§3) Minimal Bactericidal Concentration (MBC). After the microtiter plates were read for the determination of the MIC, a 10-μl sample of each clear well (at least 5 wells without visible growth) was applied onto TSA plates for viable counts determination.
(§4) Petri dishes were incubated at 35° C. for exactly 24 h and bacterial colonies were counted.

H. influenzae ATCC 49766 [8] = assay: Minimal Bactericidal Concentration (MBC); type: cell-based; details: Haemophilus influenzae, ATCC49766, 99.9% killing
Protocol: as §3, §4

B. catarrhalis ATCC 8176 [9] = assay: Minimal Bactericidal Concentration (MBC); type: cell-based, Branhamella (Moraxella) catarrhalis; details: Moraxella catarrhalis, ATCC8176, 99.9% killing
Protocol: as §3, §4

MRSA strain Sa211c = assay: MIC broth microdilution, antibiotic resistant strain panel; type: cell-based, Staphylococcus aureus; details: Staphylococcus aureus; multi-resistant MRSA strain Sa211c; read-out: MIC
Protocol: as §1, §2

MRSA strain Sa212c = assay: as above; type: cell-based, Staphylococcus aureus; details: Staphylococcus aureus; multi-resistant MRSA strain Sa212c; read-out: MIC
Protocol: as §1, §2

MRSA strain Sa220c = assay: as above; type: cell-based, Staphylococcus aureus; details: Staphylococcus aureus; multi-resistant MRSA strain Sa220c; read-out: MIC
Protocol: as §1, §2

MRSA strain Sa224c = assay: as above; type: cell-based, Staphylococcus aureus; details: Staphylococcus aureus; multi-resistant MRSA strain Sa224c; read-out: MIC
Protocol: as §1, §2

MRSA strain Sa228c = assay: as above; type: cell-based, Staphylococcus aureus; details: Staphylococcus aureus; multi-resistant MRSA strain Sa228c; read-out: MIC
Protocol: as §1, §2

MRSA strain Sa234c = assay: as above; type: cell-based, Staphylococcus aureus; details: Staphylococcus aureus; multi-resistant MRSA strain Sa234c; read-out: MIC
Protocol: as §1, §2

MRSA strain Sa248c = assay: as above; type: cell-based, Staphylococcus aureus; details: Staphylococcus aureus; multi-resistant MRSA strain Sa248c; read-out: MIC
Protocol: as §1, §2

MRSA strain Sa249c = assay: as above; type: cell-based, Staphylococcus aureus; details: Staphylococcus aureus; multi-resistant MRSA strain Sa249c; read-out: MIC
Protocol: as §1, §2

MRSA strain Sa253c = assay: as above; type: cell-based, Staphylococcus aureus; details: Staphylococcus aureus; multi-resistant MRSA strain Sa253c; read-out: MIC
Protocol: as §1, §2

Compound | MIC (S. aureus ATCC 29213) [µg/mL] | MIC [1] [µg/mL] | MIC [2] [µg/mL] | MIC (E. faecalis ATCC 29212) [µg/mL] | MIC (E. faecium ATCC 35667) [µg/mL] | MIC (E. coli ATCC 25922) [µg/mL] | MIC (H. influenzae ATCC 49247 [4]) [µg/mL] | MIC (H. influenzae ATCC 49766 [5]) [µg/mL] | MIC (B. catarrhalis ATCC 8176 [6]) [µg/mL] | MBC (H. influenzae ATCC 49247 [7]) [µg/mL] | MBC (H. influenzae ATCC 49766 [8]) [µg/mL] | MBC (B. catarrhalis ATCC 8176 [9]) [µg/mL] | further results
CO/N=C(\C(=O)N[C@@H]1C(=O)N2C(C(=O)O)=C(COC(C)=O)CS[C@H]12)c1csc(N)n1 [Cefotaxime] | 1 to 2 (≈ 2.2 to 4.39 µM) | 0.5 to 1 (≈ 1.1 to 2.2 µM) | 8 (≈ 17.6 µM) | 2 to 8 (≈ 4.39 to 17.6 µM) | 16 (≈ 35.1 µM) | 0.06 to 0.12 (≈ 0.132 to 0.263 µM) | 0.12 (≈ 0.263 µM) | 0.008 (≈ 0.0176 µM) | 0.03 (≈ 0.0659 µM) | 0.12 (≈ 0.263 µM) | 0.008 (≈ 0.0176 µM) | 0.06 (≈ 0.132 µM) | MIC (S. aureus MRSA COL): 512 µg/mL (≈ 1120 µM); MIC (S. typhimurium ATCC14028): > 2 µg/mL; MIC (A. baumannii ATCC 19606): 16 µg/mL (≈ 35.1 µM); MIC [3]: > 2 µg/mL; MIC (E. faecium VanA): > 128 µg/mL
CC[C@H]1OC(=O)[C@H](C)[C@@H](O[C@H]2C[C@@](C)(OC)[C@@H](O)[C@H](C)O2)[C@H](C)[C@@H](O[C@@H]2O[C@H](C)C[C@H](N(C)C)[C@H]2O)[C@](C)(O)C[C@@H](C)C(=O)[C@H](C)[C@@H](O)[C@]1(C)O [Erythromycin] | 0.5 (≈ 0.681 µM) | 0.5 (≈ 0.681 µM) | 0.25 (≈ 0.341 µM) | 2 to 4 (≈ 2.73 to 5.45 µM) | 2 (≈ 2.73 µM) | 64 (≈ 87.2 µM) | 2 (≈ 2.73 µM) | 8 (≈ 10.9 µM) | 0.06 (≈ 0.0818 µM) | 2 (≈ 2.73 µM) | 16 (≈ 21.8 µM) | 0.12 (≈ 0.164 µM) | MIC (S. aureus MRSA COL; S. aureus MRSA COL, read-out: MIC): 0.25 µg/mL (≈ 0.341 µM); MIC (MRSA strain Sa211c): > 32 µg/mL; MIC (MRSA strain Sa212c): > 32 µg/mL; MIC (MRSA strain Sa220c): 0.5 µg/mL (≈ 0.681 µM); MIC (MRSA strain Sa224c): > 32 µg/mL; MIC (MRSA strain Sa228c): > 32 µg/mL; MIC (MRSA strain Sa234c): > 32 µg/mL; MIC (MRSA strain Sa248c): > 128 µg/mL; MIC (MRSA strain Sa249c): > 128 µg/mL; MIC (MRSA strain Sa253c): > 128 µg/mL
